Results on 21 molecules are retold here after patent US20240382471A1, “GLUCAGON-LIKE PEPTIDE-1 RECEPTOR MODULATORS AND USES THEREOF” (HEPAGENE THERAPEUTICS (HK) LIMITED, priority 2021, published 2024).

Structures are written as SMILES.

In general, EC50 refers to the concentration at which the effect is half-maximal.

The target in one assay is T1, GLP1R (Homo sapiens, UniProt P43220). As to the kind of experiment: GLP1R cAMP assay (HTRF cAMP detection, agonist activity). In kind it is cell-based. Also noted: host or cells: Flp-In-293. To be noted: Flp-In-293-GLP1R cells, 30 min at 37° C., read-out: EC50 (nM) Assay 1. How it is done: GLP1R-mediated agonist activity was determined with a cell-based functional assay utilizing an HTRF (Homogeneous Time-Resolved Fluorescene) cAMP detection kit that measures CAMP levels in the cell. Reagents and equipment used in the assay are listed below, followed by the protocol.
• 1) Cell Line: Flp-In-293-GLP1R (constructed by Pharmaron Beijing Co., Ltd) • 2) Complete Medium: DMEM+10% FBS+1×Penicillin-Streptomycin+200 μg/mL HB • 3) Assay Buffer: 1×HBSS+20 mM HEPES+0.1% BSA+500 μM IBMX
• a) Seed Flpin-293-GLP1R cells at 20,000 cells/well into 384 well assay plate (6007680-50, PE) using complete medium. • b) Prepare 4×compound working solution with assay buffer. • c) Add 5 μL 4×compound working solution into cell plate, incubate 30 min at 37° C. • d) Dilute Eu-cAMP tracer (1/50) with lysis buffer and add 10 μl/well to assay plate. • e) Dilute Ulight-anti-cAMP (1/150) with lysis buffer and add 10 μl/well to assay plate. • f) Incubate 1 h at RT. • g) Read the plate at wavelengths of 665 nm and 615 nm on Envision 2105 plate reader.
(§1) • 3.1% Activity is calculated as follow:
% Activity=100−(Signalcmpd−SignalAve_PC)/(SignalAve_VC−SignalAve_PC)×100. • 3.2 Calculate EC50 and Plot effect-dose curve of cmpds:
Y=Bottom+(Top−Bottom)/(1+10^((Log EC50−X)*Hill Slope)) • X: log of agonist concentration; Y: % Activity.
Target sequence in this assay (P43220 24-463, species assumed): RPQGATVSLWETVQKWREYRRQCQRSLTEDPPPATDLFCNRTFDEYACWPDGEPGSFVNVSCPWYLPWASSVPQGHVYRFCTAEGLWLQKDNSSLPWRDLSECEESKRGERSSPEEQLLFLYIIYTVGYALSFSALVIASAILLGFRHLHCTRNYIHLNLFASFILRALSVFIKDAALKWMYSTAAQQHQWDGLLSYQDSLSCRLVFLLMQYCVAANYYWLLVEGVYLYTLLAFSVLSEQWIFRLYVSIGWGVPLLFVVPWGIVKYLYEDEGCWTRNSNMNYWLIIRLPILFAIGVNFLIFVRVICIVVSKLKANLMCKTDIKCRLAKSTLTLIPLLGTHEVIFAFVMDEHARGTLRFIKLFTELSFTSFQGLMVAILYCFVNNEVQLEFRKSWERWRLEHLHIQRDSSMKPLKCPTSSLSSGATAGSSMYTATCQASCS
With `CS(=O)(=O)NC(=O)c1ccc2nc(CN3CC4CCC(C3)N4c3cccc(OCc4ccc(C#N)cc4F)n3)n(C[C@@H]3CCO3)c2c1` [Compound 2-42, 2-((−8-(6-((4-cyano-2-fluorobenzyl)oxy)pyridin-2-yl)-3,8-diazabicyclo[3.2.1]octan-3-yl)methyl)-N-(methylsulfonyl)-1-(((S)-oxetan-2-yl)methyl)-1H-benzo[d]imidazole-6-carboxamide], the 50% effective concentration (EC50) is more than 4 nM.

The next assay has as its target T1, GLP1R. The assay can be described thus: GLP1R/CRE-Luc luciferase reporter gene assay (agonist activity). It counts as cell-based. Also noted: host or cells: HKE293 (so in the source). As to conditions: HKE293-Human GLP1R/CRE-luc cells, 5 h at 37° C., read-out: EC50 (nM) Assay 2. How it is done:
GLP1R-mediated agonist activity was determined with a cell-based functional assay utilizing a britelite plus luciferase reporter gene assay system. The stable cell line overexpress GLP1R and target response element. The stimulation with GLP1R agonist results in the upregulation of intracellular cAMP, which regulate the activities of cAMP-response element binding protein (CREB) and CREB-Luc. Reagents and equipment used in the assay are listed below, followed by the protocol.
• 1) Cell Line: HKE293-Human GLP1R/CRE-luc • 2) Complete Medium: DMEM+10% FBS+1×Penicillin-Streptomycin+400 μg/mL G418
• a) Seed HKE293-Human GLP1R/CRE-luc cells at 20,000 cells/well into 384 well assay plate (6007680-50, PE) using complete medium and incubate overnight. • b) Prepare 6×compound working solution with Medium. • c) Add 5 μL 6×compound working solution into cell plate, incubate 5 h at 37° C. • d) Add 20 μl britelite plus Luciferase Assay Reagent into each well of 384-well assay plate. • e) Record the luminescence value on Envision plate reader.
as §1
% Activity=(Signalcmpd−SignalAve_VC)/(SignalAve_PC−SignalAve_VC)×100. • 3.2 Calculate EC50 and Plot effect-dose curve of cmpds:
Y=Bottom+(Top−Bottom)/(1+10^((Log EC50−X)*HillSlope)) • X: log of agonist concentration; Y: % Activity.
(In general: In a reporter assay the amount or activity of a reporter protein is the signal.)
Target sequence in this assay (P43220 24-463): as the sequence (P43220 24-463, species assumed) above
With `COc1cc(C#N)ccc1COc1cccc(C23CCN(Cc4nc5ccc(C(=O)O)cc5n4C[C@@H]4CCO4)CC2C3)n1` (single isomer, unassigned) [Compound 1-6-A], the EC50 was 5.55 nM. For the molecule `COc1cc(C#N)ccc1COc1cccc(C23CCN(Cc4nc5ccc(C(=O)O)cc5n4C[C@@H]4CCO4)CC2C3)n1` (single isomer, unassigned) [Compound 1-6-B], the EC50 came out at 4.98 nM. Still for that read-out and setting: next, `COc1cc(C#N)ccc1COc1ccnc(C23CCN(Cc4nc5ccc(C(=O)O)cc5n4C[C@@H]4CCO4)CC2C3)n1` (single isomer, unassigned) [Compound 1-26-A]: 102 nM. Still for that read-out and setting: as for `COc1cc(C#N)ccc1COc1ccnc(C23CCN(Cc4nc5ccc(C(=O)O)cc5n4C[C@@H]4CCO4)CC2C3)n1` (single isomer, unassigned) [Compound 1-26-B], the figure is 7.54 nM; as for `COc1cc(C#N)ccc1COc1ccnc(C23CCN(Cc4nc5c(OC)cc(C(=O)O)cc5n4C[C@@H]4CCO4)CC2C3)n1` (single isomer, unassigned) [Compound 1-38-A], 16 nM. Consider `COc1cc(C#N)ccc1COc1ccnc(C23CCN(Cc4nc5c(OC)cc(C(=O)O)cc5n4C[C@@H]4CCO4)CC2C3)n1` (single isomer, unassigned) [Compound 1-38-B], for which the EC50 was 0.28 nM. For the molecule `COc1cc(Cl)ccc1COc1cccc(C23CCN(Cc4nc5ccc(C(=O)O)cc5n4C[C@@H]4CCO4)CC2C3)n1` (stereo partly drawn) [Compound 1-12, 2-((6-(6-((4-chloro-2-methoxybenzyl)oxy)pyridin-2-yl)-3-azabicyclo[4.1.0]heptan-3-yl)methyl)-1-(((S)-oxetan-2-yl)methyl)-1H-benzo[d]imidazole-6-carboxylic acid], the EC50 was determined as 26.4 nM. With `COc1nc(C#N)ccc1COc1cccc(C23CCN(Cc4nc5ccc(C(=O)O)cc5n4C[C@@H]4CCO4)CC2C3)n1` (stereo partly drawn) [Compound 1-13, 2-((6-(6-((6-cyano-2-methoxypyridin-3-yl)methoxy)pyridin-2-yl)-3-azabicyclo[4.1.0]heptan-3-yl)methyl)-1-(((S)-oxetan-2-yl)methyl)-1H-benzo[d]imidazole-6-carboxylic acid], the EC50 was found to be 35.8 nM. For `COc1cc(C(F)(F)F)ccc1COc1cccc(C23CCN(Cc4nc5ccc(C(=O)O)cc5n4C[C@@H]4CCO4)CC2C3)n1` (stereo partly drawn) [Compound 1-14, 2-((6-(6-((2-methoxy-4-(trifluoromethyl)benzyl)oxy)pyridin-2-yl)-3-azabicyclo[4.1.0]heptan-3-yl)methyl)-1-(((S)-oxetan-2-yl)methyl)-1H-benzo[d]imidazole-6-carboxylic acid], the EC50 is 17.4 nM. On to `COCc1ccc(COc2cccc(C34CCN(Cc5nc6ccc(C(=O)O)cc6n5C[C@@H]5CCO5)CC3C4)n2)c(OC)c1` (stereo partly drawn) [Compound 1-15, 2-((6-(6-((2-methoxy-4-(methoxymethyl)benzyl)oxy)pyridin-2-yl)-3-azabicyclo[4.1.0]heptan-3-yl)methyl)-1-(((S)-oxetan-2-yl)methyl)-1H-benzo[d]imidazole-6-carboxylic acid], for which the concentration for a half-maximal effect (EC50) is 439 nM. `COc1cc(Br)ccc1COc1cccc(C23CCN(Cc4nc5ccc(C(=O)O)cc5n4C[C@@H]4CCO4)CC2C3)n1` (stereo partly drawn) [Compound 1-16, 2-((6-(6-((4-bromo-2-methoxybenzyl)oxy)pyridin-2-yl)-3-azabicyclo[4.1.0]heptan-3-yl)methyl)-1-(((S)-oxetan-2-yl)methyl)-1H-benzo[d]imidazole-6-carboxylic acid]: the EC50 is 24.8 nM. Still for that read-out and setting: as for `COc1cc(C#N)ccc1COc1cccc(C23CCN(Cc4nc5c(C#N)cc(C(=O)O)cc5n4C[C@@H]4CCO4)CC2C3)n1` (stereo partly drawn) [Compound 1-17, 4-cyano-2-((6-(6-((4-cyano-2-methoxybenzyl)oxy)pyridin-2-yl)-3-azabicyclo[4.1.0]heptan-3-yl)methyl)-1-(((S)-oxetan-2-yl)methyl)-1H-benzo[d]imidazole-6-carboxylic acid], the figure is 6.66 nM; as for `COc1cc(C#N)ccc1COc1cccc(C23CCN(Cc4nc5c(C)cc(C(=O)O)cc5n4C[C@@H]4CCO4)CC2C3)n1` (stereo partly drawn) [Compound 1-18, 2-((6-(6-((4-cyano-2-methoxybenzyl)oxy)pyridin-2-yl)-3-azabicyclo[4.1.0]heptan-3-yl)methyl)-4-methyl-1-(((S)-oxetan-2-yl)methyl)-1H-benzo[d]imidazole-6-carboxylic acid], 13.4 nM; as for `COc1cc(C#N)ccc1COc1cccc(C23CCN(Cc4nc5c(C6CC6)cc(C(=O)O)cc5n4C[C@@H]4CCO4)CC2C3)n1` (stereo partly drawn) [Compound 1-19, 2-((6-(6-((4-cyano-2-methoxybenzyl)oxy)pyridin-2-yl)-3-azabicyclo[4.1.0]heptan-3-yl)methyl)-4-cyclopropyl-1-(((S)-oxetan-2-yl)methyl)-1H-benzo[d]imidazole-6-carboxylic acid], 19 nM. With `COc1cc(C#N)ccc1COc1cccc(C23CCN(Cc4nc5c(C(C)=O)cc(C(=O)O)cc5n4C[C@@H]4CCO4)CC2C3)n1` (stereo partly drawn) [Compound 1-20, 4-acetyl-2-((6-(6-((4-cyano-2-methoxybenzyl)oxy)pyridin-2-yl)-3-azabicyclo[4.1.0]heptan-3-yl)methyl)-1-(((S)-oxetan-2-yl)methyl)-1H-benzo[d]imidazole-6-carboxylic acid], the EC50 came to 9.67 nM. For `COc1cc(C#N)ccc1COc1cncc(C23CCN(Cc4nc5ccc(C(=O)O)cc5n4C[C@@H]4CCO4)CC2C3)n1` (stereo partly drawn) [Compound 1-21, 2-((6-(6-((4-cyano-2-methoxybenzyl)oxy)pyrazin-2-yl)-3-azabicyclo[4.1.0]heptan-3-yl)methyl)-1-(((S)-oxetan-2-yl)methyl)-1H-benzo[d]imidazole-6-carboxylic acid], the EC50 came to 39.1 nM. As to `COc1cc(C#N)ccc1COc1cccc(C23CCN(Cc4nc5c(OC(F)(F)F)cc(C(=O)O)cc5n4C[C@@H]4CCO4)CC2C3)n1` (stereo partly drawn) [Compound 1-22, 2-((6-(6-((4-cyano-2-methoxybenzyl)oxy)pyridin-2-yl)-3-azabicyclo[4.1.0]heptan-3-yl)methyl)-1-(((S)-oxetan-2-yl)methyl)-4-(trifluoromethoxy)-1H-benzo[d]imidazole-6-carboxylic acid], the EC50 came out at 14.4 nM. In the case of `COc1cc(C#N)ccc1COc1cccc(C23CCN(Cc4nc5c(F)cc(C(=O)O)cc5n4C[C@@H]4CCO4)CC2C3)n1` (stereo partly drawn) [Compound 1-23, 2-((6-(6-((4-cyano-2-methoxybenzyl)oxy)pyridin-2-yl)-3-azabicyclo[4.1.0]heptan-3-yl)methyl)-4-fluoro-1-(((S)-oxetan-2-yl)methyl)-1H-benzo[d]imidazole-6-carboxylic acid], the 50% effective concentration (EC50) worked out at 3.05 nM.

On to `COc1cc(C#N)ccc1COc1cccc(C23CCN(Cc4nc5c(OC)cc(C(=O)O)cc5n4C[C@@H]4CCO4)CC2C3)n1` (stereo partly drawn) [Compound 1-24, 2-((6-(6-((4-cyano-2-methoxybenzyl)oxy)pyridin-2-yl)-3-azabicyclo[4.1.0]heptan-3-yl)methyl)-4-methoxy-1-(((S)-oxetan-2-yl)methyl)-1H-benzo[d]imidazole-6-carboxylic acid], for which the EC50 worked out at 0.37 nM. Take `COc1cc(C#N)ccc1COc1cccc(C23CCN(Cc4nc5c(Cl)cc(C(=O)O)cc5n4C[C@@H]4CCO4)CC2C3)n1` (stereo partly drawn) [Compound 1-25, 4-chloro-2-((6-(6-((4-cyano-2-methoxybenzyl)oxy)pyridin-2-yl)-3-azabicyclo[4.1.0]heptan-3-yl)methyl)-1-(((S)-oxetan-2-yl)methyl)-1H-benzo[d]imidazole-6-carboxylic acid]: the EC50 is 0.95 nM.
